Assay results reported in US7618975B2, “4-arylamino-quinazolines and analogs as activators of caspases and inducers of apoptosis and the use thereof” (Myriad Pharmaceuticals, Inc., priority 2003, dated 2009).
Like-named read-outs stand apart in the source and are kept apart here.

Legend:
Topoisomerase II = Topoisomerase II (Homo sapiens, UniProt P11388); experiment: Topoisomerase II activity assay (relaxation of supercoiled DNA, gel); conditions: FIG. 1, Example 1 Compound at 100 μM
[1] = tested on: tubulin (Cytoskeleton #ML113, MAP-rich); experiment: Inhibition of tubulin polymerization (DAPI fluorescence); format: biochemical; conditions: 30 minutes preincubation, 30 minutes at 37° C.
Procedure: Lyophilized tubulin (Cytoskeleton #ML113, 1 mg, MAP-rich) was assayed for the effect of the test compound on tubulin polymerization as measured by change in fluorescence for 4′,6-diamidino-2-phenylindole (DAPI) (Barron, D. M. et al. Analytical Biochem., 2003, 315, 49-56.). 1 μl of serial dilutions of each test compound (from 100×DMSO stock) was added in 96 well plate format and preincubated for 30 minutes with 94 ul of the non-GTP supplemented tubulin supernatant. 5 μl of DAPI/GTP solution was added to initiate polymerization and incubated for 30 minutes at 37° C. Fluorescence was read with excitation 350 nm, emission wavelength 485 nm on a Tecan Spectraflour Plus. Polymerized tubulin (DMSO and with the tubulin stabilizer Taxol® (paclitaxel)) gives a higher DAPI fluorescence as compared to non-polymerized tubulin (vinblastine and colchicine used to determine baseline).

Topoisomerase I = target: T1, Topoisomerase I (Homo sapiens, UniProt P11387); experiment: Topoisomerase I activity assay (relaxation of supercoiled DNA, gel); conditions: FIG. 2
T1 sequence (P11387 1-765): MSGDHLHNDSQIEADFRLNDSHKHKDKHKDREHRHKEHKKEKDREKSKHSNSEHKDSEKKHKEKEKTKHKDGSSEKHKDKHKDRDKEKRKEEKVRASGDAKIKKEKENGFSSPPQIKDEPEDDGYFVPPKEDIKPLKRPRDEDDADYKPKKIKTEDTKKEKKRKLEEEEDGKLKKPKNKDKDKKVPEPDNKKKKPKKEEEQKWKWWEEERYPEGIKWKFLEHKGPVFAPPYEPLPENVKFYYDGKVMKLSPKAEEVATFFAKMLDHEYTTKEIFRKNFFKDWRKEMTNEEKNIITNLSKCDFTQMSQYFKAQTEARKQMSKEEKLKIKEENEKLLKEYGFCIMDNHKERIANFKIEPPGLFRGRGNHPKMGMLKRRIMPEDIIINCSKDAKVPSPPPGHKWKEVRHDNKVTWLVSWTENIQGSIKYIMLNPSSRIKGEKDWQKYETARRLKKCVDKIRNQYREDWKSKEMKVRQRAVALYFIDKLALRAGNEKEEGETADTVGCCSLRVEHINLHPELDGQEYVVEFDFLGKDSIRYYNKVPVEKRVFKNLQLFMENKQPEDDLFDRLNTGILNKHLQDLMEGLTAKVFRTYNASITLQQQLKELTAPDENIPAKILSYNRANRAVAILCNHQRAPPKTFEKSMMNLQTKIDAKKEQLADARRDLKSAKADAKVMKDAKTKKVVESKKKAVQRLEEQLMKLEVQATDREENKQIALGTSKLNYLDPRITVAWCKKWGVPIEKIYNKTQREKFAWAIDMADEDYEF

T-47D cells [2] = experiment: Caspase cascade activation (N-(Ac-DEVD)-N′-ethoxycarbonyl-R110 fluorogenic substrate) in T-47D cells; format: cell-based, Human; conditions: for Caspase activity Ratio T-47D (24 hr): ratio of net RFU to control; for EC50: Homo sapiens, T47D
MX-1 cells = experiment: Inhibition of cell proliferation (GI50, CellTiter-Glo); format: cell-based; conditions: Homo sapiens, MX1; 48 h incubation
Procedure: (§1) T-47D, DLD, H1299, MX-1 and SW620 cells were grown and harvested as in Example 143. […] An aliquot of 45 μL of cells was added to a well of a 96-well microtiter plate containing 5 μL of a 10% DMSO in RPMI-1640 media solution without compound as the control sample for maximal cell proliferation (LMax). The samples were mixed by agitation and then incubated at 37° C. for 48 h in a 5% CO2-95% humidity incubator. After incubation, the samples were removed from the incubator and 25 μL of CellTiter-Glo™ reagent (Promega) was added. The samples were mixed by agitation and incubated at room temperature for 10-15 min. Plates were then read using a luminescent plate reader (Model SPECTRAfluor Plus, Tecan) to give Ltest values.
(§2) The samples were mixed by agitation and then incubated at 37° C. for 0.5 h in a 5% CO2-95% humidity incubator. After incubation, the samples were removed from the incubator and 25 μL of CellTiter-Glo™ reagent (Promega) was added. The samples were mixed by agitation and incubated at […] 10-15 min at room temperature in a 5% CO2-95% humidity incubator. Fluorescence was read as above, (LStart) defining luminescence for initial cell number used as baseline in GI50 determinations.

DLD cells = experiment: as above; format: cell-based; conditions: Homo sapiens; 48 h incubation
Procedure: as §1, §2

SW620 cells = experiment: as above; format: cell-based; conditions: Homo sapiens, SW-620; 48 h incubation
Procedure: as §1, §2

T-47D cells [3] = experiment: as above; format: cell-based; conditions: Homo sapiens, T47D; 48 h incubation
Procedure: as §1, §2

H1299 cells = experiment: as above; format: cell-based; conditions: Homo sapiens, NCI-H1299; 48 h incubation
Procedure: as §1, §2

[4] = target: tyrosine kinase of Epidermal Growth Factor Receptor (Homo sapiens, UniProt P00533); conditions: Rewcastle et al. 1995; read-out: IC50 EGFR tyrosine kinase; cited from earlier work
Chain of tyrosine kinase of Epidermal Growth Factor Receptor (P00533 25-1210): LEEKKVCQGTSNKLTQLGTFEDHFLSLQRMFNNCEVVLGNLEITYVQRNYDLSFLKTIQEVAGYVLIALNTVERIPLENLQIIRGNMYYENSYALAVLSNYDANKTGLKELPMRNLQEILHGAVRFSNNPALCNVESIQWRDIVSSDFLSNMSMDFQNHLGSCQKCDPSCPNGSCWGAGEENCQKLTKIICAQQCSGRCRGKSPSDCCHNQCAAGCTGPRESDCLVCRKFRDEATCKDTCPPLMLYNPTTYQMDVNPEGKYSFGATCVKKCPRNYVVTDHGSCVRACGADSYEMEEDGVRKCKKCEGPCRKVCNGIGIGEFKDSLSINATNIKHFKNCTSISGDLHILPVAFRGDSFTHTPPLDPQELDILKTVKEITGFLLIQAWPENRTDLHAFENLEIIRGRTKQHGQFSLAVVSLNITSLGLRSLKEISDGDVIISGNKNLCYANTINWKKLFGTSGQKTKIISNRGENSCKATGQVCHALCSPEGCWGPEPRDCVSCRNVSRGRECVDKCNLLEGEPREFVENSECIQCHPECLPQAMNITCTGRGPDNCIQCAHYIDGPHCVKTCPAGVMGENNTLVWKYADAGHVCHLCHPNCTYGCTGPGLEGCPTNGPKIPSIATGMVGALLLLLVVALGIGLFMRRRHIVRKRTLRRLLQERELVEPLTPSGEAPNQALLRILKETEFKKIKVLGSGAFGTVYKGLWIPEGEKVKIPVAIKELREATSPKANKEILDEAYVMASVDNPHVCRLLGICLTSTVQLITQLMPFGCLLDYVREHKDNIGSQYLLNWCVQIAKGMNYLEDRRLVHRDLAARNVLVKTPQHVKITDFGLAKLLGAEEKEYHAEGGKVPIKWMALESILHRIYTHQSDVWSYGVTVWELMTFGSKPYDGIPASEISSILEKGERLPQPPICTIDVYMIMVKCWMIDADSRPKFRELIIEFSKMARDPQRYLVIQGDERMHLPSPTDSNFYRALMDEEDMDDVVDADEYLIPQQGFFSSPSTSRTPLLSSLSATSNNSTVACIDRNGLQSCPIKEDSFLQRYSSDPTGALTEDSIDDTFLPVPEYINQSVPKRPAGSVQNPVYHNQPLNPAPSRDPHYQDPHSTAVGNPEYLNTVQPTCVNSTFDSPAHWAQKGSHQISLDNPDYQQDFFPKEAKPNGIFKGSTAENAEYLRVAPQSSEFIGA

[5] = target: T2, Human Type II Topoisomerase (p170 Form) (Homo sapiens, UniProt P11388); experiment: Photo-crosslinking of radiolabeled compound to Topoisomerase II; format: binding; conditions: 50 nM, 60 minutes, UV 254 nm; FIG. 3
T2 construct: purchased TopoGEN, Inc., Columbus, Ohio
T2 sequence (P11388 whole entry): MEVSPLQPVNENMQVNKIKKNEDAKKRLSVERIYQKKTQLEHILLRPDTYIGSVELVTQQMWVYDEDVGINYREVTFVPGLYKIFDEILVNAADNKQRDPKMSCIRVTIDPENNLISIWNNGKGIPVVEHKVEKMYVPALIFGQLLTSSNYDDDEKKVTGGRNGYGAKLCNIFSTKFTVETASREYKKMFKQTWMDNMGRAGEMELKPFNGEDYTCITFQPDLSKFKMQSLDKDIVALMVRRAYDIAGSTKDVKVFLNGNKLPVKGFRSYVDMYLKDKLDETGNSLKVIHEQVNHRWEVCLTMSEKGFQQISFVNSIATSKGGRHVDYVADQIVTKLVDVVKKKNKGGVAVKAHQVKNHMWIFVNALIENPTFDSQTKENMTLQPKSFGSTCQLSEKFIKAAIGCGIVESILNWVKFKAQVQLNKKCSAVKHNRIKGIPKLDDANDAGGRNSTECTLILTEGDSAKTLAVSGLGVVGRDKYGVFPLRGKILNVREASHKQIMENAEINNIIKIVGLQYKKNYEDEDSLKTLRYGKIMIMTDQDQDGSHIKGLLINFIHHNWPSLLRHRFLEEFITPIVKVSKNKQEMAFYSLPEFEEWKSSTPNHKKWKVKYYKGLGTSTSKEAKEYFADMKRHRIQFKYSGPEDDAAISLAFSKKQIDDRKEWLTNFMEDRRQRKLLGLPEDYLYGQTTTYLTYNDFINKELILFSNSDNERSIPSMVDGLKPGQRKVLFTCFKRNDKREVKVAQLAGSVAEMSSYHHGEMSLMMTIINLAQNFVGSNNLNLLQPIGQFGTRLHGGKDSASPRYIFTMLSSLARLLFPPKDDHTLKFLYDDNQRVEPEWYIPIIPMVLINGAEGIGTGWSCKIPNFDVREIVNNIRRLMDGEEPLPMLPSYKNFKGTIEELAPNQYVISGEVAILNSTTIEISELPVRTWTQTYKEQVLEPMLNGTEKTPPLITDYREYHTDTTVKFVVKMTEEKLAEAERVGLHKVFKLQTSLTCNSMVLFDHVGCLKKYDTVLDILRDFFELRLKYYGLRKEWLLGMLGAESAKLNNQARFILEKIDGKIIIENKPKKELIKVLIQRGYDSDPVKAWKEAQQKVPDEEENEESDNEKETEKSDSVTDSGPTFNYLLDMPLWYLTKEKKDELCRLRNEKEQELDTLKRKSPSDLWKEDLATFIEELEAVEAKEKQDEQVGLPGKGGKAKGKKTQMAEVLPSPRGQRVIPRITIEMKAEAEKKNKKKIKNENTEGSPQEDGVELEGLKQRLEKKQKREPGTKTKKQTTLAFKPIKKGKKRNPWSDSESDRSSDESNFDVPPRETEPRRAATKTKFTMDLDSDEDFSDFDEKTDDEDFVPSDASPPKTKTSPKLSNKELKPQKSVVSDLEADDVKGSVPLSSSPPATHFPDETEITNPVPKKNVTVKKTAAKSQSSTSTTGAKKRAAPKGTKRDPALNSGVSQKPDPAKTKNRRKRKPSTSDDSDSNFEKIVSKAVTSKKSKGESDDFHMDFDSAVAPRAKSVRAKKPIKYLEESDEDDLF
Procedure: 30 Units (15 ul) Human Type II Topoisomerase (p170 Form) (from TopoGEN, Inc., Columbus, Ohio) was incubated with 50 nM radiolabeled Example 102 compound for 60 minutes at room temperature.
(Radiolabeled Example 102 compound stock is 16.67 uM, 60 Ci/mmol, 1 Ci/ml American Radiolabeled Chemicals, Inc., St. Louis, Mo. Samples were either UV irradiated (+) with a short wavelength UV Source (254 nm) for 10 minutes at a distance of 3.5 cm or not irradiated (−). 8 ul of 5× sample buffer (150 mM Tris, pH 6.8, 50% glycerol, 1% SDS, 50 mM dithiothreitol, 62 mg/ml bromophenol blue) was added to the samples and boiled for 5 minutes. The entire sample was then loaded onto a 6% Tris-Glycine SDS-gel (10 well, 1.5 mm thickness) (Invitrogen, Carlsbad, Calif.). The gel was stained with 1% Coomassie Brilliant Blue in 40% methanol, 7.5% acetic acid for 2 hours then de-stained in several changes of de-stainer (40% methanol, 7.5% acetic acid). The gel was then incubated in Amplify (Amersham, Piscataway, N.J.) for 30 minutes at room temperature and then dried down on Whatman filter paper at 80° C. for 2 hours on a gel dryer. The dried gel was put on Hyperfilm (Amersham) in a film cassette and placed at −80° C. for 5-7 days.

Chain of Topoisomerase II (P11388 whole entry): as above

In the case of `COc1ccc(N(C)c2nc(Cl)nc3ccccc23)cc1` [Example 1], the “Inhibition of topoisomerase II-dependent relaxation of supercoiled DNA” value (Topoisomerase II) is reported as “inhibition of DNA relaxation is substantial”, the IC50 [1] is reported as less than 0.5 µM and the “Effect on topoisomerase I-dependent relaxation of supercoiled DNA” value (Topoisomerase I) is reported as “no apparent effect”. The “Caspase activity Ratio T-47D (24 hr)” value (T-47D cells [2]; T-47D, 24 hr) was 8.7.
Work on `COc1ccc(N(C)c2ncnc3ccccc23)cc1` [Example 34, (4-Methoxy-phenyl)-methyl-quinazolin-4-yl-amine] yielded an IC50 [1] of 1 µM, a GI50 (MX-1 cells) of 73 nM and a GI50 (DLD cells) of 76 nM. The GI50 (SW620 cells) was 55 nM, the GI50 (T-47D cells [3]) was 503 nM and the GI50 (H1299 cells) was 59 nM. For the same compound, the EC50 (T-47D cells [2]; T-47D, 24 hr, read-out: Caspase potency EC50 (nM) T-47D (24 hr)) was 7 nM, the EC50 (T-47D cells [2]; Table III, time not printed (values repeat Table I 24 hr or 48 hr), read-out: Caspase activation (EC50 nM)) was 7 nM and the “Caspase activity Ratio T-47D (24 hr)” value (T-47D cells [2]; T-47D, 24 hr) was 7.5.
For `CN(c1ccccc1)c1ncnc2ccccc12` [R1═Me, R2═R3═R4═H], the IC50 [4] is listed as greater than 100 µM.
With `COc1cc([C@@H]2c3cc4c(cc3[C@@H](O[C@@H]3O[C@@H]5CO[C@@H](C)O[C@H]5[C@H](O)[C@H]3O)[C@H]3COC(=O)[C@H]23)OCO4)cc(OC)c1O` [VP-16, etoposide, reference compound] the “Effect on topoisomerase I-dependent relaxation of supercoiled DNA” value (Topoisomerase I) was “no apparent effect”.
In the case of “Radiolabeled (4-Azido-phenyl)-(2-methyl-quinazolin-4-yl)-methyl-amine [Radiolabeled Example 102 compound]”, the “Binding to Topoisomerase II (UV crosslinking)” value [5] is reported as “binds sufficiently well to Topoisomerase II to crosslink to the enzyme when photoactivated”.
